Assay [1] in a line: Cardiomyocyte differentiation, correlative immunostaining (FIG. 31). It is filed as cell-based, human. The following applies: MTX Treated; vs H1 positive and untreated negative control. The protocol:
(§1) MTX/PTX treated and SSEA4 positive cells were maintained on Matrigel-coated 6-well plates in mTeSR1 medium. To induce differentiation, cells with EB-like morphology were dissociated with Accutase (Invitrogen) at 37° C. for 5 minutes and then single cell suspension was seeded onto a Matrigel-coated cell-culture dish at 100,000 cell/cm^2 in mTeSR1 supplemented with 5 μM ROCK inhibitor (Y-27632) for 24 hours. The cells then were cultured in mTeSR1 medium, which was changed daily. Next, 8 μl of 36 mM CHIR99021 were added into 24 ml RPMI/B27-insulin medium to make 12 μM CHIR99021 RPMI/B27-insulin medium and 2-ml of this were added to each well after the old mTeSR1 medium was removed. Exactly 24 hours after adding CHIR, the medium was replaced with 2 ml room temperature RPMI/B27-insulin. The plate was put back into the 37° C., 5% CO2 incubator. 72 hours post addition of CHIR99021, 1 ml medium from each well was removed and the remaining 1-ml was supplemented with 1-ml RPMI/B27-insulin with 5 μM IWP2 (WNT pathway inhibitor). After 48 hours, the medium was replaced with fresh RPMI/B27-insulin and this was incubated at 37° C., 5% CO2 incubator. After this, every 2-days, the old medium was removed from each well of the 12-well plate and 2 ml/well room temperature RPMI/B27 medium was added and incubated at 37° C., 5% CO2. […]

The next assay relates to 293T cells. The assay is described as above. The following applies: MTX Treated; vs H1 positive and untreated negative control. The format is cell-based, human. How it is done: as §1

Structures are written as SMILES.

As for `CN(Cc1cnc2nc(N)nc(N)c2n1)c1ccc(C(=O)N[C@@H](CCC(=O)O)C(=O)O)cc1` [MTX, methotrexate], the “cardiac muscle cells in the differentiation medium” value (in assay [1]; in the assay with 293T cells) was “had cardiac muscle cells” each time.

The values are drawn from patent US20250171744A1, “METHODS OF REPROGRAMMING SOMATIC CELLS AND MATERIALS RELATED THERETO” (CITY OF HOPE, priority 2019, published 2025).
